Where two headings read alike, the source gives them in different places.
Biological target: T1, DR1Dw1 (Homo sapiens, UniProt P01903+P01911, A100R/D57E/F55L/F60I/F76Y/I96L/L162R/M171V/P40L/Q125E/R42F/V115G/Y59C)
T1 construct: these are Drosophila transmembrane DR; made in house; host or cells: Drosophila (cells)
Test: Inhibition assay: inhibition of biotinylated RMBP 90-102 peptide binding to MHC class II DR1
Method: For direct binding assays, optimal concentrations of affinity purified DR1Dwl (1.25 nM) or DR4Dw4 (10 nM) are incubated with serial dilutions of biotinylated rat myelin basic protein (RMBP) 90-102 in PBS (phosphate buffered saline) containing 0.75% octyl glucoside, pH 6.5, in 96-well polypropylene plates for 16 to 20 h at 37° C. In studies optimizing the assay it was determined that only between 5 to 10% of the DR molecules are capable of binding added peptide. Therefore, the effective concentration of DR1Dw1 and DR4Dw4 was approximately 0.125 and 1.0 nM, respectively. […] The DR-peptide complexes (50 μL) are transferred to wells of a 96-well EIA plate precoated with LB3.1, the monoclonal antibody which recognizes the DR alleles of MHC Class II, and blocked with PBS with fetal calf serum (FCS). An additional 50 μL of 50 mM Tris, pH 7.0, containing 0.75% octyl glucoside is added to each well and the mixture incubated overnight at 4° C. Excess peptide is removed by washing with PBS containing 0.05% Tween 20 (Polyoxyethylene sorbitan monolaurate) and 0.01% NAN3. Europium-labeled streptavidin (Wallac Inc.) is added and incubated overnight. After washing, complexes are measured by the addition of Enhance™ buffer, the tradename for 0.1 M acetate phthalate buffer, pH 3.2, containing 0.1% Triton X-100, tradename for polyoxyethylene ethers and other surface active compounds of Union Carbide Chemicals and Plastics Co., Inc. (particularly, a non-ionic surfactant for recovery of membrane components under non-denaturing conditions) 15 µM 2-naphthoyltrifluoroacetone, and 50 μM tri-N-octylphosphine oxide, which buffer releases the chelated europium from streptavidin and forms a highly fluorescent micellar solution. The resultant fluorescence is measured using a fluorescent plate reader (e.g., DELPHIA, Wallac, Inc.). The data are analyzed using a four-parameter logistical curve […] program (e.g., SigmaPlot) that calculates the concentration of biotinylated peptide giving a half-maximal signal (ED50).
The inhibition assay format is identical to the procedure described above with the exception that the unlabeled antagonist is serially diluted and incubated with constant concentrations of biotinylated RMBP 90-102 (0.3 nM for DR1Dw1 or 0.9 nM for DR4Dw4) and the MHC class II proteins. The concentration of unlabeled compound that prevents 50% of the labeled peptide from binding is the IC50 value. The concentration of the biotinylated RMBP 90-102 in each assay is experimentally determined to be […] one-sixth of its measured ED50 to assure the inhibition was primarily measuring the binding characteristics of the competitor.
In particular, a protocol for carrying out the inhibition assay is given below.
Preparation of Antibody Plate
Add 115 μL of 5 μg/mL LB3.1 in 50 mM Tris HCl pH 9.6/azide to each well of a Costar EIA plate. Incubate the plate overnight at 4° C.
Wash the plate 4 times with water/0.05% Tween-20/azide. Add 200 μL of PBS/5% FCS/azide for 1 hour at 4° C. to block the plate. The plate may be held at this point for later use or used immediately.
Flip out the block. It is not necessary to wash the plate. At 50 μL of load buffer (50 mM Tris HCl, pH 8.0 0.75% octylglucoside). Add to this volume 50 μL of the reaction mix from day 2, step 3 below.
Preparation of Reaction Mixture
(1) Add the following to a polypropylene round bottom 96-well plate such as a Costar #3794:
(A) Diluent (Ca Mg free PBS adjusted to pH 6.5 with 0.1 M KH2 PO4/0.75% octylglucoside/azide).81 μL
(B) Competitor at 16.6 times the final concentration in diluent or diluent alone. 9 μL
(C) Biotinylated RMBP (BRMBP) 90-102; 1.5 nM for DR1 or 4.5 nM for DR4 (These are 5 × stocks of final concentrations of 0.3 nM/DR1 or 0.9 nM/DR4)
(D) 6.25 nM DR1Dw1 or 50 nM DR4Dw4 (these are Drosophila transmembrane DR) (This is a 5× stock of the final concentration of 1.25 or 10 nM.) 30 μL Add the DR last and mix well at this time 150 μL
(2) Incubate at 37° C. for 20 min and 5 hours. […]

[1] = 20 min incubation at 37° C., 0.3 nM biotinylated RMBP 90-102, 1.25 nM DR1Dw1, pH 6.5, read-out: IC50 /μM @ 20'
[2] = 5 hours incubation at 37° C., 0.3 nM biotinylated RMBP 90-102, 1.25 nM DR1Dw1, pH 6.5, read-out: IC50 /μM @ 5 h

| Substance | IC50 [1] [µM] | IC50 [2] [µM] |
| --- | --- | --- |
| EtOCO-Phe-(S)-γ-Lactam-Nva-Leu-NH2 [Example 21] | 3.1 | 10.5 |
| EtOCO-Phe-(S)-δ-Lactam-L-Nva-Leu-NH2 [27(61)] | 3.4 | 10 |
| [4H]-Naphthyl-CH2 -(R)-γ-Lactam-Nva-Leu-NH2 [Example 50] | 2.5 | 23.5 |
| cHp(CH2)3 -(R)-γ-Lactam-Nva-Leu-NH2 [Example 14] | 0.34 | 2.9 |
| cHp(CH2)3 -α-Propyl-(R)-γ-Lactam-Nva-Leu-NH2 [Example 32] | 0.15 | 1.4 |
| cHx((CH3)C=CHCH2)-(R)-γ-Lactam-Nva-Leu-NH2 [Example 11] | 0.76 | 5.2 |
| cHx((CH3)CHCH2 CH2 NH)-(R)-γ-Lactam-Nva-Leu-NH2 [Example 12] | 0.65 | 5.6 |
| cHx(CH2)3 -α-(3-Aminopropyl)-(R)-γ-Lactam-Nva-NHNBu(COOEt) [Example 53] | 0.68 | 3.1 |
| cHx(CH2)3 -α-(3-Hydroxypropyl)-(R)-γ-Lactam-Nva-Leu-NH2 [Example 33] | 0.13 | 0.86 |
| cHx(CH2)3 -α-(3-Hydroxypropyl)-(R)-γ-Lactam-Nva-NHNBu(COOEt) [Example 51] | 0.16 | 0.63 |
| cHx(CH2)3 -α-(3-guanidinopropyl)-(R)-γ-Lactam-Nva-NHNBu(COOEt) [Example 54] | 0.21 | 0.93 |
| cHx(CH2)3 -α-propyl-(R)-γ-Lactam-Nva-NHNBu(COOEt) [Example 35] | 0.25 | 2 |
| cHx(CH23 -α-(3-Azidopropyl)-(R)-γ-Lactam-Nva-NHNBu(COOEt) [Example 52] | 0.16 | 0.62 |

— patent publication US5719296A, “Pseudopeptide lactam inhibitors of peptide binding to MHC class II proteins” (Merck & Co., Inc., priority 1996, dated 1998)
